The supplement of paper PMC8671470

Assays:
Conditions in all cases: 72 h
HL-60 [1] = assay: cell viability (% survival relative to DMSO control); higher = less cytotoxic
Procedure, shortened: (§1)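 In 384-well plates, the full library was rescreened in duplicate on HL-60 cells in RPMI 1640 with 10% FBS, at 1–10,000 nM in five tenfold concentrations, for 72 h at 37 °C, 5% CO2. Each run also held DMSO or 100 nM of one of three metabolic inhibitors. Viability was measured by CellTiter-Glo and normalised to DMSO wells and to wells with proteasome inhibitor, present at 10 μM. Any area under the curve comes from four-parameter log-logistic fitting with drc and PharmacoGx.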

HL-60 [2] = assay: area under dose-response curve (viability, 1 nM-10 uM) (fraction (0-1)); higher = more sensitive
Procedure, shortened: as §1

KCL-22 [3] = test system: KCL-22
Procedure, shortened: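 Each of fifteen myeloid leukaemia cell lines was seeded in RPMI 1640 at a density titrated to its linear growth range. The cells were incubated for 72 h at 37 °C and 5% CO2 with compounds at five tenfold doses from 1 to 10,000 nM, in duplicate. After ATP luminescence was normalised to vehicle and to a positive control at 10 µM, four-parameter log-logistic curves were fitted. These curves gave the IC50.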

KG-1 = assay: cell viability (% survival relative to DMSO control, bortezomib = 0%); higher = less cytotoxic
Procedure, shortened: (§2)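 Percent survival figures are means of duplicate wells. They were obtained by CellTiter-Glo luminescence after 10 AML and 5 CML cell lines spent 72 h at 37 °C with 5% CO2 in 384-well plates with compounds at 1, 10, 100, 1000 or 10000 nM. Vehicle was set to 100% and a 10 µM positive control to 0%.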

HL-60 [4] = assay: as above
Procedure, shortened: as §2

LAMA-84 = assay: as above
Procedure, shortened: as §2

KCL-22 [5] = assay: as above
Procedure, shortened: as §2

ML-2 = assay: as above
Procedure, shortened: as §2

K-562 = assay: as above
Procedure, shortened: as §2

HEL = assay: as above
Procedure, shortened: as §2

SHI-1 = assay: as above
Procedure, shortened: as §2

THP-1 = assay: as above
Procedure, shortened: as §2

MOLM-13 = assay: as above
Procedure, shortened: as §2

MV4-11 = assay: as above
Procedure, shortened: as §2

BV-173 = assay: as above
Procedure, shortened: as §2

NOMO-1 = assay: as above
Procedure, shortened: as §2

KU-812 = assay: as above
Procedure, shortened: as §2

Mono-Mac-6 = assay: as above
Procedure, shortened: as §2

Cn1cc(C[C@@H](N)C(=O)O)c2ccccc21 [Indoximod]
cell viability [%], HL-60 [1]
Conditions | 0.001 µM | 0.01 µM | 0.1 µM | 1 µM | 10 µM
co-treatment: AZD3965 100 nM | 89.7 | 96.1 | 104 | 106 | 101
co-treatment: DMSO vehicle | 100 | 98.7 | 112 | 110 | 96.7
co-treatment: GSK2194069 100 nM | 96.5 | 88.55 | 115 | 113 | 86.2
co-treatment: pictilisib 100 nM | 110 | 63.4 | 120 | 123 | 93.9

Conditions | area under dose-response curve, co-treatment: AZD3965 100 nM | area under dose-response curve, co-treatment: DMSO vehicle | area under dose-response curve, co-treatment: GSK2194069 100 nM | area under dose-response curve, co-treatment: pictilisib 100 nM | cell viability, 1 nM [%] | cell viability, 10 nM [%] | cell viability, 100 nM [%] | cell viability, 1000 nM [%] | cell viability, 10000 nM [%]
BV-173 | – | – | – | – | 134 | 95.3 | 90.6 | 84.7 | 100
HEL | – | – | – | – | 110 | 97.1 | 85.8 | 120 | 100
HL-60 [2] | < 0.0301 | < 0.0301 | < 0.0301 | < 0.0301 | – | – | – | – | –
HL-60 [4] | – | – | – | – | 102 | 90.2 | 116 | 97.3 | 106
K-562 | – | – | – | – | 103 | 108 | 79.8 | 87.5 | 89.9
KCL-22 [5] | – | – | – | – | 109 | 86.8 | 82.5 | 106 | 101
KG-1 | – | – | – | – | 107 | 99 | 102 | 99.2 | 97.6
KU-812 | – | – | – | – | 93.8 | 101 | 90.9 | 105 | 95.6
LAMA-84 | – | – | – | – | 94.5 | 97.2 | 91.1 | 113 | 94.7
ML-2 | – | – | – | – | 97.8 | 97.2 | 100 | 106 | 92.9
MOLM-13 | – | – | – | – | 104 | 97.7 | 81.3 | 86.8 | 76.7
MV4-11 | – | – | – | – | 93.3 | 88.2 | 103 | 85.5 | 94.9
Mono-Mac-6 | – | – | – | – | 104 | 102 | 92.9 | 97.7 | 91.8
NOMO-1 | – | – | – | – | 112 | 96.2 | 95.6 | 117 | 99
SHI-1 | – | – | – | – | 96 | 101 | 102 | 107 | 104
THP-1 | – | – | – | – | 99.3 | 96.4 | 102 | 94.8 | 98.4

Conditions | IC50 (cell viability) [µM]
KCL-22 [3] | > 10

O=[As]O[As]=O (stereo not given) [Arsenic trioxide]
cell viability [%], HL-60 [1]
Conditions | 0.001 µM | 0.01 µM | 0.1 µM | 1 µM | 10 µM
co-treatment: AZD3965 100 nM | 103 | 101.5 | 98.7 | 102 | 82.7
co-treatment: DMSO vehicle | 98.8 | 100 | 97.29 | 100.5 | 96.7
co-treatment: GSK2194069 100 nM | 102 | 99.1 | 98.8 | 99.11 | 87.09
co-treatment: pictilisib 100 nM | 94.24 | 101 | 93.6 | 98.5 | 63.4

Conditions | area under dose-response curve, co-treatment: AZD3965 100 nM | area under dose-response curve, co-treatment: DMSO vehicle | area under dose-response curve, co-treatment: GSK2194069 100 nM | area under dose-response curve, co-treatment: pictilisib 100 nM | cell viability, 1 nM [%] | cell viability, 10 nM [%] | cell viability, 100 nM [%] | cell viability, 1000 nM [%] | cell viability, 10000 nM [%]
BV-173 | – | – | – | – | 96.1 | 97.2 | 105 | 95.5 | 28.4
HEL | – | – | – | – | 98.8 | 102 | 120 | 96.8 | 74.9
HL-60 [2] | < 0.0301 | < 0.0301 | < 0.0301 | < 0.0301 | – | – | – | – | –
HL-60 [4] | – | – | – | – | 108 | 105 | 109 | 96.9 | 55.6
K-562 | – | – | – | – | 91.1 | 93.8 | 105 | 102 | 49.5
KCL-22 [5] | – | – | – | – | 107 | 107 | 102 | 99 | 74.4
KG-1 | – | – | – | – | 103 | 106 | 108 | 97 | 86.4
KU-812 | – | – | – | – | 98.5 | 105 | 112 | 93.4 | 61.5
LAMA-84 | – | – | – | – | 104 | 100 | 109 | 90.2 | 53.2
ML-2 | – | – | – | – | 109 | 96.4 | 103 | 94.9 | 76.2
MOLM-13 | – | – | – | – | 110 | 104 | 124 | 102 | 18.5
MV4-11 | – | – | – | – | 97 | 108 | 104 | 95.1 | 20.4
Mono-Mac-6 | – | – | – | – | 98.2 | 104 | 109 | 102 | 43.2
NOMO-1 | – | – | – | – | 98 | 96 | 110 | 100 | 71.4
SHI-1 | – | – | – | – | 105 | 97.1 | 112 | 94.7 | 57.6
THP-1 | – | – | – | – | 93.9 | 96.1 | 106 | 92.4 | 82.2

Conditions | IC50 (cell viability) [µM]
KCL-22 [3] | > 10
